Consider 25 compounds from patent publication US12071425B2 (Genentech, Inc., priority 2018, dated 2024).

Molecules are shown by their SMILES. Structures can show the parent of a compound that is named as a salt.

kinase domain of IRE1 alpha (His-tagged kinase dead construct KR, AA G547-L977, D688N), sequence (O75460 547-977 D688N): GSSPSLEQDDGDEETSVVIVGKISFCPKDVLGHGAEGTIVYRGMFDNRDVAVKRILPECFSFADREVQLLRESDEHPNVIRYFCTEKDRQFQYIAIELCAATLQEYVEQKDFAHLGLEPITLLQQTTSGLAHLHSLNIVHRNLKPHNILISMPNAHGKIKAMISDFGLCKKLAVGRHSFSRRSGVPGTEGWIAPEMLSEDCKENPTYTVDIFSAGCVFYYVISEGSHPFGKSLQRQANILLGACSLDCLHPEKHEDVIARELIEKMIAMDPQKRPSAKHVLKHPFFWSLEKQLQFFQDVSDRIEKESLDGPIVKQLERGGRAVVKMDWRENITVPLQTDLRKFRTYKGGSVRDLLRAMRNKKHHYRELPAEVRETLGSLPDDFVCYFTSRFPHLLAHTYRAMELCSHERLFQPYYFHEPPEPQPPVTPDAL

The assay has as its target kinase domain of IRE1 alpha (His-tagged kinase dead construct KR, AA G547-L977, D688N) (Homo sapiens (Human), UniProt O75460, D688N). The assay can be described thus: IRE1α TR-FRET competition binding assay. The settings on record: competition with Kinase Tracer 236, 0.1 μM; one hour at room temperature. A digest of the protocol: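 Compound displacement of an ATP-site fluorescent tracer (0.1 μM final) measured by TR-FRET after 1 h at room temperature. Protein, a His-tagged D688N kinase/RNase construct from Sf9 cells (0.006 μM final), was pre-bound 1 h at 4° C to Eu anti-His antibody (0.002 μM) in pH 7.5 HEPES buffer.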
The compound `CC(F)(F)C1CNCC(Nc2nccc(-c3cccnc3Oc3cc(F)c(NS(=O)(=O)Cc4ccccc4)c(F)c3F)n2)C1` (single isomer, unassigned) [Compound 339, N-(4-((3-(2-((5-(1, l-Difluoroethyl)piperidin-3-yl)amino)pyrimidin-4-yl)pyridin-2-yl)oxy)-2,3,6-trifluorophenyl)-1-phenylmethanesulfonamide] had an IC50 of 0.24 nM.

Compound `O=S(=O)(Cc1ccccc1)Nc1cccc(Oc2ncccc2-c2ccnc(N[C@H]3CCCNC3)n2)c1` [Compound 133, (S)-1-Phenyl-N-(3-((3-(2-(piperidin-3-ylamino)pyrimidin-4-yl)pyridin-2-yl)oxy)phenyl)methanesulfonamide hydrochloride] showed an IC50 of 120 nM.

`COc1cccc(CS(=O)(=O)Nc2c(F)cc(Oc3ncccc3-c3ccnc(N[C@@H]4CNC[C@@](C)(F)C4)n3)c(F)c2F)c1` [Compound 291, 1-(3-Methoxyphenyl)-N-(2,3,6-trifluoro-4-((3-(2-(((3S,5S)-5-fluoro-5-methylpiperidin-3-yl)amino)pyrimidin-4-yl)pyridin-2-yl)oxy)phenyl)methanesulfonamide] yielded an IC50 of 0.28 nM.

`Cc1cc(CS(=O)(=O)Nc2c(F)cc(Oc3ncccc3-c3ccnc(N[C@@H]4CNC[C@@](C)(F)C4)n3)c(F)c2F)no1` [Compound 203, 1-(5-methylisoxazol-3-yl)-N-(2,3,6-trifluoro-4-((3-(2-(((3S,5S)-5-fluoro-5-methylpiperidin-3-yl)amino)pyrimidin-4-yl)pyridin-2-yl)oxy)phenyl)methanesulfonamide] had a half-inhibitory concentration (IC50) of 3.3 nM.

`O=S(=O)(Cc1ccccc1)Nc1c(F)cc(Oc2ncccc2-c2ccnc(CC3CCCNC3)n2)c(F)c1F` (single isomer, unassigned) [Compound 199, 1-Phenyl-N-(2,3,6-trifluoro-4-((3-(2-(3-piperidylmethyl)pyrimidin-4-yl)-2-pyridyl)oxy)phenyl)methanesulfonamide] returned an IC50 of 110 nM. Against the preceding compound, the IC50 is about 33-fold higher.

For `O=S(=O)(Nc1ccc(Oc2ncccc2-c2ccnc(N[C@H]3CCCNC3)n2)c(F)c1F)c1cccnc1` [Compound 214, (S)-N-(2,3-difluoro-4-((3-(2-(piperidin-3-ylamino)pyrimidin-4-yl)pyridin-2-yl)oxy)phenyl)pyridine-3-sulfonamide], the IC50 worked out at 44 nM.

`O=S(=O)(Cc1cccnc1C(F)(F)F)Nc1c(F)cc(Oc2ncccc2-c2ccnc(N[C@@H]3CNC[C@@H](F)C3)n2)c(F)c1F` [Compound 389, N-(2,3,6-Trifluoro-4-((3-(2-(((3S,5S)-5-fluoropiperidin-3-yl)amino)pyrimidin-4-yl)pyridin-2-yl)oxy)phenyl)-1-(2-(trifluoromethyl)pyridin-3-yl)methanesulfonamide] showed an IC50 of 0.3 nM.

`O=S(=O)(Cc1ccccc1F)Nc1cc(Cl)c(Oc2ncccc2-c2ccnc(N[C@@H]3CNC[C@@H](F)C3)n2)c(F)c1F` [Compound 340, N-(5-Chloro-2,3-difluoro-4-((3-(2-(((3S,5S)-5-fluoropiperidin-3-yl)amino)pyrimidin-4-yl)pyridin-2-yl)oxy)phenyl)-1-(2-fluorophenyl)methanesulfonamide]: the concentration for half-maximal inhibition (IC50) amounted to 7.5 nM.

Compound `O=S(=O)(Cc1ccc(F)cc1Cl)Nc1c(F)cc(Oc2ncccc2-c2ccnc(N[C@@H]3CNC[C@@H](F)C3)n2)c(F)c1F` [Compound 365, 1-(2-Chloro-4-fluoro-phenyl)-N-[2,3,6-trifluoro-4-[[3-[2-[[(3S,5S)-5-fluoro-3-piperidyl]amino]pyrimidin-4-yl]-2-pyridyl]oxy]phenyl]methanesulfonamide] gave an IC50 of 0.7 nM.

Turning to `Cc1c(Oc2ncccc2-c2ccnc(N[C@@H]3CNC[C@H](C)C3)n2)cc(F)c(NS(=O)(=O)Cc2ccccc2)c1F` [Compound 164, N-(2,6-Difluoro-3-methyl-4-((3-(2-(((3S,5R)-5-methyl-3-piperidyl)amino)pyrimidin-4-yl)-2-pyridyl)oxy)phenyl)-1-phenyl-methanesulfonamide], the IC50 amounted to 4 nM.

On to `COc1ccccc1S(=O)(=O)Nc1ccc(Oc2ncccc2-c2ccnc(N[C@H]3CCCNC3)n2)c(F)c1F` [Compound 224, (S)-N-(2,3-difluoro-4-((3-(2-(piperidin-3-ylamino)pyrimidin-4-yl)pyridin-2-yl)oxy)phenyl)-2-methoxybenzenesulfonamide], for which the half-maximal inhibitory concentration (IC50) stood at 40 nM.

The compound `O=S(=O)(Cc1cccc(C(F)(F)F)c1)Nc1c(F)cc(Oc2ncccc2-c2ccnc(N[C@@H]3CNC[C@@H](F)C3)n2)c(F)c1F` [Compound 374, N-(2,3,6-Trifluoro-4-((3-(2-(((3S,5S)-5-fluoropiperidin-3-yl)amino)pyrimidin-4-yl)pyridin-2-yl)oxy)phenyl)-1-(3-(trifluoromethyl)phenyl)methanesulfonamide] had a concentration for half-maximal inhibition (IC50) of 0.2 nM.

`O=S(=O)(Cc1ccccc1)Nc1ccc(Oc2ncccc2-c2ccnc(N[C@H]3CC[C@H](O)CC3)n2)c(F)c1F` [Compound 182, N-(2,3-difluoro-4-((3-(2-(((1r,4r)-4-hydroxycyclohexyl)amino)pyrimidin-4-yl)pyridin-2-yl)oxy)phenyl)-1-phenylmethanesulfonamide] registered a concentration for half-maximal inhibition (IC50) of 9.5 nM.

`Cc1cc(Oc2ncccc2-c2ccnc(N[C@@H]3CNC[C@@](C)(F)C3)n2)c(F)c(F)c1NS(=O)(=O)Cc1ccccc1` [Compound 279, N-(2,3-Difluoro-4-((3-(2-(((3S,5S)-5-fluoro-5-methylpiperidin-3-yl)amino)pyrimidin-4-yl)pyridin-2-yl)oxy)-6-methylphenyl)-1-phenylmethanesulfonamide]: the IC50 was found to be 0.23 nM.

For `C[C@H]1CNC[C@@H](Nc2nccc(-c3cccnc3Oc3ccc(NS(=O)(=O)Cc4ccccc4)c(F)c3F)n2)C1` [Compound 111, N-(2,3-difluoro-4-((3-(2-(((3S,5R)-5-methylpiperidin-3-yl)amino)pyrimidin-4-yl)pyridin-2-yl)oxy)phenyl)-1-phenylmethanesulfonamide hydrochloride], the IC50 worked out at 4.4 nM. Against the preceding compound, the IC50 is about 19-fold higher.

As to `O=S(=O)(CCC1CC1(F)F)Nc1ccc(Oc2ncccc2-c2ccnc(N[C@H]3CCCNC3)n2)c(F)c1F` (stereo partly drawn) [Compound 217, N-(2,3-difluoro-4-((3-(2-(((S)-piperidin-3-yl)amino)pyrimidin-4-yl)pyridin-2-yl)oxy)phenyl)-2-(2,2-difluorocyclopropyl)ethane-1-sulfonamide], the half-inhibitory concentration (IC50) worked out at 16 nM.

`O=S(=O)(Cc1ccccc1)Nc1ccc(Oc2ncccc2-c2ccnc(NC3CCNCC3)n2)c(F)c1F` [Compound 180, N-(2,3-difluoro-4-((3-(2-(4-piperidylamino)pyrimidin-4-yl)-2-pyridyl)oxy)phenyl)-1-phenyl-methanesulfonamide]: the IC50 stood at 38 nM.

For the compound `Cc1c(Oc2ncccc2-c2ccnc(N[C@H]3CCCNC3)n2)cc(F)c(NS(=O)(=O)Cc2ccccc2)c1F` [Compound 154, (S)-N-(2,6-difluoro-3-methyl-4-(3-(2-(piperidin-3-ylamino)pyrimidin-4-yl)pyridin-2-yloxy)phenyl)(phenyl)methanesulfonamide hydrochloride], the concentration for half-maximal inhibition (IC50) amounted to 3.8 nM.

The compound `O=S(=O)(CC1(F)CC1)Nc1c(F)cc(Oc2ncccc2-c2ccnc(N[C@@H]3CNC[C@@H](F)C3)n2)c(F)c1F` [Compound 261, 1-(l-Fluorocyclopropyl)-N-(2,3,6-trifluoro-4-((3-(2-(((3S,5S)-5-fluoropiperidin-3-yl)amino)pyrimidin-4-yl)pyridin-2-yl)oxy)phenyl)methanesulfonamide] gave an IC50 of 3.5 nM. The IC50 values of the last two compounds are within 1.5-fold of each other.

`COCC1CNCC(Nc2nccc(-c3cccnc3Oc3cc(F)c(NS(=O)(=O)Cc4ccccc4)c(F)c3F)n2)C1` (single isomer, unassigned) [Compound 329, 1-Phenyl-N-(2,3,6-trifluoro-4-((3-(2-((5-(methoxymethyl)piperidin-3-yl)amino)pyrimidin-4-yl)pyridin-2-yl)oxy)phenyl)methanesulfonamide] returned a concentration for half-maximal inhibition (IC50) of 12 nM.

As to `O=C(Nc1ccc(Oc2ncccc2-c2ccnc(N[C@H]3CCCNC3)n2)c(F)c1F)C1CC12CC2` (stereo partly drawn) [Compound 151, N-(2,3-difluoro-4-((3-(2-(((S)-piperidin-3-yl)amino)pyrimidin-4-yl)pyridin-2-yl)oxy)phenyl)spiro[2.2]pentane-1-carboxamide hydrochloride], the half-maximal inhibitory concentration (IC50) was found to be 84 nM. Compared with the last compound, the IC50 is about 7-fold higher.

`O=S(=O)(Cc1ccccc1F)Nc1c(F)cc(Oc2ncccc2-c2ccnc(NC3CNCC(C4CC4)C3)n2)c(F)c1F` (single isomer, unassigned) [Compound 325, N-(4-((3-(2-((5-Cyclopropylpiperidin-3-yl)amino)pyrimidin-4-yl)pyridin-2-yl)oxy)-2,3,6-trifluorophenyl)-1-(2-fluorophenyl)methanesulfonamide] registered an IC50 of 22 nM.

The compound `Cc1cc(Oc2ncccc2-c2ccnc(N[C@H]3CCCNC3)n2)c(C)cc1NS(=O)(=O)c1ccccc1Cl` [Compound 125, (S)-2-chloro-N-(2,5-dimethyl-4-((3-(2-(piperidin-3-ylamino)pyrimidin-4-yl)pyridin-2-yl)oxy)phenyl)benzenesulfonamide] displayed an IC50 of 27 nM.

As for `CN(C)C1CCC(Nc2nccc(-c3cccnc3Oc3cc(F)c(NS(=O)(=O)Cc4ccccc4)c(F)c3F)n2)CC1F` (single isomer, unassigned) [Compound 307, N-(4-((3-(2-((4-(Dimethylamino)-3-fluorocyclohexyl)amino)pyrimidin-4-yl)pyridin-2-yl)oxy)-2,3,6-trifluorophenyl)-1-phenylmethanesulfonamide hydrochloride], the IC50 amounted to 0.31 nM.

Turning to `O=S(=O)(Cc1cccc(Cl)c1)Nc1c(F)cc(Oc2ncccc2-c2ccnc(N[C@@H]3CNC[C@@H](F)C3)n2)c(F)c1F` [Compound 353, 1-(3-Chlorophenyl)-N-[2,3,6-trifluoro-4-[[3-[2-[[(3S,5S)-5-fluoro-3-piperidyl]amino]pyrimidin-4-yl]-2-pyridyl]oxy]phenyl]methanesulfonamide], the IC50 is 0.3 nM.
